Laboratory results taken from patent US20060106048A1, “Furoisoquinoline derivative and use thereof” (priority 2002, published 2006).
Structures can show the parent of a compound that is named as a salt.

Molecular target: T1, recombinant human brain-derived phosphodiesterase 4D3 (Homo sapiens, UniProt Q08499)
T1 construct: GST; made in house; host or cells: Escherichia coli BL21/pPDE4D3 (FERM BP-7075)
Test: Assay of phosphodiesterase IV-inhibiting action (SPA, [3H]cAMP)
Assay type: biochemical
Conditions: recombinant human brain-derived phosphodiesterase 4D3, [3H]cAMP, 30 minutes at 30° C.; activity without compound = 100%; read-out: Phosphodiesterase 4D inhibiting action (IC50)
Excerpt: Assay of Phosphodiesterase IV-Inhibiting Action
(1) Expression of Recombinant Human Brain-Derived Phosphodiesterase 4D3 in Escherichia coli and Purification Thereof.
Using the Escherichia coli BL21/pPDE4D3 (FERM BP-7075) producing recombinant human brain-derived phosphodiesterase 4D3, a recombinant human brain-derived phosphodiesterase 4D3 was obtained. The expression and purification of E. coli were in accordance with the protocol attached to GST Gene Fusion System (Pharmacia).
(2) Assay of Phosphodiesterase IV-Inhibiting Action
To a 96-well plate (OPTI plate, Packard), 10 μl of a buffer solution [0.5 M Tris-HCl (pH 7.5), 83 mM MgCl2, 17 mM EGTA], 10 μl of the recombinant human brain-derived phosphodiesterase 4D3 (0.0034 mg/ml) obtained in Section (1) described above, 65 μl of Ultrapure water, 5 μl of an inhibitor sample and 10 μl of [^3H] cAMP were added and reacted for 30 minutes at 30° C. After completing the reaction, 50 μl of SPA beads solution [18 mg/ml Yttrium silicate beads, 18 mM ZnSO4] was added thereto, and the mixture was allowed to stand at room temperature for about 20 minutes. The radioactivity was counted using a scintillation counter (Topcount, Packard). Inhibiting activity of the compound against recombinant human brain-derived phosphodiesterase 4D3 was calculated, based on that enzymatic activity under absence of the compound was 100%.

T1 sequence (Q08499 1-673 isoform Q08499-2): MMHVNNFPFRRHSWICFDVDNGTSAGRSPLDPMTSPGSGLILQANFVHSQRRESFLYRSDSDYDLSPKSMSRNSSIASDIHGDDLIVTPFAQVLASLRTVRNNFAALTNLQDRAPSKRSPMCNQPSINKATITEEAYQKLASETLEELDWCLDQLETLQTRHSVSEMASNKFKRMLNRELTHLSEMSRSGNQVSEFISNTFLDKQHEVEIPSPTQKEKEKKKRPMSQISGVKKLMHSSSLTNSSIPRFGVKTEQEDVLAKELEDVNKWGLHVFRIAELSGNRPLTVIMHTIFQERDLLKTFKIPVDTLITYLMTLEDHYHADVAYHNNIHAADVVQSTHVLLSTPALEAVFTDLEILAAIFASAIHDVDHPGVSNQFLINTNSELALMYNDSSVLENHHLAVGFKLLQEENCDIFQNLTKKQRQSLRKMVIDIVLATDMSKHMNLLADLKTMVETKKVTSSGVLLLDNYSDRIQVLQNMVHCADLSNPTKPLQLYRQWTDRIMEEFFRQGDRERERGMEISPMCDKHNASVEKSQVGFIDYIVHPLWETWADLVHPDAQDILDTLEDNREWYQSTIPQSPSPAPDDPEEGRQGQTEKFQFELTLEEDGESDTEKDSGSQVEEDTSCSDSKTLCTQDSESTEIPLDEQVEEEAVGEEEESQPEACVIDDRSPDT

| Compound | IC50 [nM] |
| --- | --- |
| CCOc1cc2c(c3c1OC(C)(C)C3)C(c1ccc(C(=O)O)c(NCc3ccccc3)c1)=NC(C)(C)C2 [Example 6, 4-(6-Ethoxy-3,4,8,9-tetrahydro-3,3,8,8-tetramethylfuro[2,3-h]isoquinolin-1-yl)-2-[(phenylmethyl)amino]benzoic acid] | 0.566 |
| CCOc1cc2c(c3c1OC(C)(C)C3)C(c1ccc(C(=O)OC)c(NC(C)=O)c1)=NC(C)(C)C2 [Example 17, Methyl 2-(acetylamino)-4-(6-ethoxy-3,4,8,9-tetrahydro-3,3,8,8-tetramethylfuro[2,3-h]isoquinolin-1-yl)benzoate] | 4.01 |
| CCOc1cc2c(c3c1OC(C)(C)C3)C(c1ccc(C(=O)OC)c(NC(=O)c3ccccn3)c1)=NC(C)(C)C2 [Example 21, Methyl 4-(6-ethoxy-3,4,8,9-tetrahydro-3,3,8,8-tetramethylfuro[2,3-]isoquinolin-1-yl)-2-[(2-pyridinylcarbonyl)amino]benzoate] | 1.89 |
| CCOc1cc2c(c3c1OC(C)(C)C3)C(c1ccc(C(N)=O)c(NC(=O)c3ccccn3)c1)=NC(C)(C)C2 [Example 23, N-[2-(Aminocarbonyl)-5-(6-ethoxy-3,4,8,9-tetrahydro-3,3,8,8-tetramethylfuro[2,3-h]isoquinolin-1-yl)phenyl]-2-pyridinecarboxamide] | 0.756 |
| CCOc1cc2c(c3c1OC(C)(C)C3)C(c1ccc(C(=O)O)c(NC(=O)c3ccc4ccccc4n3)c1)=NC(C)(C)C2 [Example 30, 4-(6-Ethoxy-3,4,8,9-tetrahydro-3,3,8,8-tetramethylfuro[2,3-h]isoquinolin-1-yl)-2-[(2-quinolinylcarbonyl)amino]benzoic acid] | 0.761 |
| CCNc1cc(C2=NC(C)(C)Cc3cc(OCC)c4c(c32)CC(C)(C)O4)ccc1C(=O)O [Example 50, 4-(6-Ethoxy-3,4,8,9-tetrahydro-3,3,8,8-tetramethylfuro[2,3-h]isoquinolin-1-yl)-2-(ethylamino)benzoic acid] | 8.4 |
| CCOc1cc2c(c3c1OC(C)(C)C3)C(c1ccc(C(=O)NC)c(NC(=O)c3ccccc3)c1)=NC(C)(C)C2 [Example 57, 2-(Benzoylamino)-4-(6-ethoxy-3,4,8,9-tetrahydro-3,3,8,8-tetramethylfuro[2,3-h]isoquinolin-1-yl)-N-methylbenzamide] | 1.63 |
| CCOc1cc2c(c3c1OC(C)(C)C3)C(c1ccc(C#N)c(NCc3ccccc3)c1)=NC(C)(C)C2 [Example 74, 4-(6-Ethoxy-3,4,8,9-tetrahydro-3,3,8,8-tetramethylfuro[2,3-h]isoquinolin-1-yl)-2-[(phenylmethyl)amino]benzonitrile] | 1.71 |
| CCOc1cc2c(c3c1OC(C)(C)C3)C(c1ccc(/C=C/C(=O)O)c(OC)c1)=NC(C)(C)C2 [Example 85, (E)-3-[4-(6-Ethoxy-3,4,8,9-tetrahydro-3,3,8,8-tetramethylfuro[2,3-h]isoquinolin-1-yl)-2-methoxyphenyl]-2-propenoic acid] | 5.5 |
| CCOc1cc2c(c3c1OC(C)(C)C3)C(c1ccc(COCC(=O)OC)cc1)=NC(C)(C)C2 [Example 94, Methyl [[4-(6-ethoxy-3,4,8,9-tetrahydro-3,3,8,8-tetramethylfuro[2,3-h]isoquinolin-1-yl)phenyl]methoxy]acetate hydrochloride] | 3.27 |
| CCOc1cc2c(c3c1OC(C)(C)C3)C(c1ccc(COCC(=O)O)cc1)=NC(C)(C)C2 [Example 95, [[4-(6-Ethoxy-3,4,8,9-tetrahydro-3,3,8,8-tetramethylfuro[2,3-h]isoquinolin-1-yl)phenyl]methoxy]acetic acid hydrochloride] | 10.9 |
| CCOc1cc2c(c3c1OC(C)(C)C3)C(c1ccc(C(C)(C)C(=O)O)cc1)=NC(C)(C)C2 [Example 118, 4-(6-Ethoxy-3,4,8,9-tetrahydro-3,3,8,8-tetramethylfuro[2,3-h]isoquinolin-1-yl)-α,α-dimethylbenzeneacetic acid hydrochloride hydrate] | 11.5 |
| CCOc1cc2c(c3c1OC(C)(C)C3)C(c1ccc(C(C)(C)C(N)=O)cc1)=NC(C)(C)C2 [Example 120, 4-(6-Ethoxy-3,4,8,9-tetrahydro-3,3,8,8-tetramethylfuro[2,3-h]isoquinolin-1-yl)-α,α-dimethylbenzeneacetamide] | 3.5 |
| CCOc1cc2c(c3c1OC(C)(C)C3)C(c1ccc(CC(=O)O)c(NC(=O)c3ccccn3)c1)=NC(C)(C)C2 [Example 124, 4-(6-Ethoxy-3,4,8,9-tetrahydro-3,3,8,8-tetramethylfuro[2,3-h]isoquinolin-1-yl)-2-[(2-pyridinylcarbonyl)amino]benzeneacetic acid] | 0.637 |
